# Reference: patent US10188651B2, “Methods of treating sleep disorders” (Melior Pharmaceuticals II, LLC, priority 2013, dated 2019)
# Columns and labels:
# noradrenaline reuptake = conditions: rat synaptosomes; Erdö et al. 1981; cited from earlier work
# [1] = Gruner et al. 2011; cited from earlier work
# [2] = system: 6-OHDA unilaterally lesioned Sprague-Dawley rats; assay: Abnormal involuntary movements (AIMs) test, Examples 1 and 2; conditions: for effect of test drug on L-dopa-induced AIMs (dyskinesia): L-dopa day 1 (50 mg/kg), L-dopa and test drug day 2; for abnormal involuntary movements (AIMs) score compared to vehicle-treated rats: once daily, scored 60 min after injection, L-dopa 6 mg/kg for 5 days, Sydnocarb 10 and 30 mg/kg, no combination
# Protocol: Female, Sprague-Dawley rats (Charles River Laboratories) at 7 to 8 weeks of age were used. Animals were assigned randomly to treatment groups. The diet consisted of standard rodent chow and water ad libitum.
# 6-OHDA was formulated at 5 mg/ml solution in 0.03% ascorbic acid in sterile 0.9% NaCl. Three μL of 6-OHDA was injected into the median forebrain bundle at the following stereotaxic coordinates from bregma: Anteroposterior (A/P) −4.0 mm; mediolateral (M/L) −1.3 mm; ventrodorsal (V/D) −8.0 mm with reference to the top of the skull.
# After lesion, rats were allowed to recover for two weeks and then tested for amphetamine-induced rotational activity. Animals were treated with 25 mg/kg amphetamine in saline and recorded in an open-field chamber for 90 minutes. Only rats rotating greater than 4 times per minute were used in efficacy studies. After an additional one week, rats were treated with L-dopa (Isotec IY0630) at various times and measured for the appearance of abnormal involuntary movements (AIMs).
# The AIMs test was carried out as follows: 1) weigh rat and inject with L-dopa/benserazide (10 ml/kg, ip); may be a single injection per day over multiple days; administration of a test compound or reference compound may also be included; 2) place rat in empty cage, start video recording; 3) AIMs were assessed in four areas: a) onset of symptoms-latency (seconds) to first visual AIM as defined below; b) 30 minute AIM score; c) 60 minute AIM score; and d) number of left rotations from 30-60 minutes; 4) AIMs were scored and recorded on a scale from 0 to 4: i) absent; ii) slight left forelimb dystonia with grooming; iii) excessive left forelimb dystonia with grooming; iv) left forelimb dystonia with left circling; and v) continuous left circling with or without grooming; 5) record any unusual clinical signs; and 6) after 60 minutes, stop recording, place rat back into home cage.
# Sixty minutes after injection, abnormal involuntary movements (AIMs) were scored.
# Rats receiving a unilateral 6-OHDA lesion as described above were treated with L-dopa (day 1, 50 mg/kg) and then L-dopa and test drug (day 2, Sydnocarb or Tesofensine).
# 6-OHDA-lesioned rats = assay: Forelimb adjusting step (FAS) test; format: in vivo, rat
# Protocol: In 6-OHDA-lesioned rats, L-dopa administration also elicits a therapeutically beneficial anti-akinetic activity that can be measured by the forelimb adjusting step (FAS) test. To determine the effect of Sydnocarb on L-dopa efficacy on this motor function, 6-OHDA-lesioned rats were treated with L-dopa in combination with Sydnocarb at 10 mg/kg and assessed by the FAS test (see, FIG. 3).
# For three consecutive days, the experimenter that performed the study handled the rats so they were familiar with the experimenter's grip: the rat was held with one hand fixing the hindlimbs and slightly raising the hind part above the surface; the other hand fixed the forelimb not to be monitored; the forelimb to be monitored was touching the table; the animal was moved slowly sideways (approx. 5 sec for 90 cm), first in the forehand and then in the backhand; and these steps were repeated for the other forelimb. Forehand is defined as compensating movement toward the body and backhand is defined as compensating movement away from the body.
# Each stepping test consisted of six trials for each forepaw, alternating between directions both forehand and backhand as follows: the rat was held in the same position as described above with one paw touching the table; the rat was moved slowly sideways (approx 5 sec for 90 cm), first in the forehand and then in the backhand; the number of adjusting steps for both paws in the forehand and back hand directions of movement were counted and recorded; and the sequence of testing was left paw forehand and backhand adjusting stepping, followed by right paw backhand and forehand directions. The rat was returned to its home cage and the sequence repeated with the second rat in the cage. Five more trials were performed for each rat, placing the rats back in their home cage between trials.
# This portion of the experiment was run 3-4 weeks post 6-OHDA lesion, and at least 1 week post rotations testing as follows: prior to the start of dosing, rats were trained and baselines performed as above; preparation of L-dopa with benserazide (concentrations are for i.p. injection, 10 ml/kg): a) L-dopa dissolved in saline at 1.2 mg/ml; and b) benserazide dissolved in saline at 0.4 mg/ml; preparation of sydnocarb 10 mg/kg (concentrations are for i.p. injection, 10 ml/kg): a) sydnocarb dissolved in 0.5% methylcellulose, 0.2% tween 80 in dH2O at 1 mg/ml.
# Rats were weighed and injected with L-dopa/benserazide (12 mg/kg/4 mg/kg). FAS were run approximately 60 minutes post L-dopa/benserazide dose. Rats were returned to home cage.
# Rats were weighed and injected with sydnocarb 10 mg/kg or vehicle (0.5% methylcellulose, 0.2% tween 80 in dH2O), 30 minutes prior to L-dopa/benserazide dosing. The rest of the study was continued as described in Day 1.
# Data were represented as percent by summing steps (forward and backhand) of the lesioned forelimb and dividing by the sum of the steps of the intact forelimb and multiplying by 100, giving a measure of the degree of forepaw disability. A similar calculation was obtained for percent of lesioned forelimb, giving a measure of gain of function.
# Sprague-Dawley rats (6/group) were injected unilaterally with 6-OHDA as described above. […] Forepaw adjusting steps were scored and graphed as a percent of the intact (unaffected) forelimb. […] (**p<0.01, p=0.058, One-way ANOVA with post-hoc t-test compared to veh+veh). […] Moreover, Sydnocarb may allow the use of lower therapeutic doses of L-dopa, thereby reducing potential L-dopa-induced side effects.
# L-dopa was administered at a dose level of 6 mg/kg (ip) along with benserazide (ip; 2 mg/kg). […] For these 6 mg/kg L-dopa studies, rats were combined from two previous L-dopa/Sydnocarb studies and allowed a 3-week wash out period.
# After an additional one week, baseline FAS was measured and rats were treated with L-dopa at 6 mg/kg and Sydnocarb at 3 and 10 mg/kg (ip) for 12 days. […]
# DA transporter (DAT) = DA transporter (DAT) (Homo sapiens, UniProt Q01959); conditions: Gruner et al. 2011; cited from earlier work
# Chain of DA transporter (DAT) (Q01959 whole entry, species assumed): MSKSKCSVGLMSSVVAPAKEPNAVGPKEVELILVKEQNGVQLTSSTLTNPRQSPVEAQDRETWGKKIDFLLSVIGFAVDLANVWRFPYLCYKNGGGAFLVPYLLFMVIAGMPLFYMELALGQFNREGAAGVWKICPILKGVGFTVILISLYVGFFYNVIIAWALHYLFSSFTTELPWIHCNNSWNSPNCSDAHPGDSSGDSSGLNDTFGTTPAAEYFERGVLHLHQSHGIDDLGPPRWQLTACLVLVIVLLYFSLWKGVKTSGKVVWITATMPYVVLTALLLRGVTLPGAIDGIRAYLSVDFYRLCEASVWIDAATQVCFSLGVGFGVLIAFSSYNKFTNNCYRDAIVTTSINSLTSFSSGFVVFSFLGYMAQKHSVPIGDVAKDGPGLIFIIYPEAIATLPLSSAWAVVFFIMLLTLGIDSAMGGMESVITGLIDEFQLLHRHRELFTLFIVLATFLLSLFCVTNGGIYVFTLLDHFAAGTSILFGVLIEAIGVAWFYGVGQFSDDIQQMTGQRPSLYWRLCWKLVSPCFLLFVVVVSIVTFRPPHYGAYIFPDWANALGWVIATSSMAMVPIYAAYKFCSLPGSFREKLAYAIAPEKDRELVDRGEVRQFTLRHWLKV
# [3] = humans; cited from earlier work
# C57Bl/6 mice = assay: Mouse electroencephalogram, time awake; format: in vivo; conditions: intraperitoneal injection 4 hours after lights-on
# Protocol: Electroencephalographic data were obtained in C57Bl/6 mice chronically implanted with electrodes to monitor brain and muscular activity. The percent time spent awake was evaluated following intraperitoneal injections of Sydnocarb 4 hours after lights-on, when mice are predominantly sleeping.
# [4] = system: C57Bl/6 mice treated with MPTP; assay: Open Field Activity assay after MPTP; format: in vivo, mouse; conditions: compound 30 min prior to MPTP (3x20 mg/kg) and daily for 4 days; measured day 5, 30 min open field
# Protocol: An Open Field Activity assay was performed in which locomotor and sensorimotor parameters were evaluated in an automated open-field apparatus. 1-methyl-4-phenyl-1,2,3,6-tetrahydropyridine (MPTP) injections (3×20 mg/kg) were performed in C57Bl/6 mice at two-hour intervals (final dose of MPTP=60 mg/kg). Mice were treated with the compound 30 minutes prior to MPTP and daily for 4 days. Locomotor activity was monitored on day 5, thirty minutes after administration of test compound. Locomotor activity was measured in an automated open-field (MedAssociates) for 30 minutes. The following parameters were measured: 1) horizontal distance traveled, 2) number of rearing events and 3) stereotypic behavior.
# [5] = equimolar doses, cited from earlier work
# [6] = system: unilaterally lesioned 6-OHDA rats; assay: Axial, limb and orolingual (ALO) AIMs rating, chronic dosing
# Protocol: L-dopa was administered at a dose level of 12 mg/kg (ip) along with benserazide (ip; 4 mg/kg). Sydnocarb (10 or 30 mg/kg, ip), amantadine (40 mg/kg ip), or vehicle was administered 30 minutes prior to L-dopa/benserazide. As a “priming” step, L-dopa was administered daily by itself for 1 week after the amphetamine rotation wash-out period. Subsequently, Sydnocarb, along with L-dopa, was dosed daily for an additional 12 days.
# After treatment, rats were placed in a confined chamber and monitored for axial, limb, and orolingual AIMs every 20-30 minutes for 2 hours as follows:
# For the first minute, AIMs were assessed in three areas: • a. Axial: dystonic posturing of the neck and torso in a twisted manner directed toward the side of the body contralateral to the lesion; • b. Forelimb: rapid, purposeless movements of the forelimb located on the side of the body contralateral to the lesion; and; • c. Orolingual: repetitive openings and closings of the jaw and tongue protrusions occurring at times when the rats are not chewing or knowing on food or other objects.
# AIMs were scored and recorded on a scale from 0 to 4: • 0=not present; • 1=present for less than 50% of the Observation period; • 2=present for 50% or more of the observation period; • 3=present for the entire observation period but interrupted by a loud stimulus (a tap on the cage); and • 4=present for the entire observation period and not interrupted by a loud stimulus.
# For the second minute, contralateral rotations, defined as complete 360 turns away from the lesioned side of the brain, were tallied.
# Ipsilateral rotations were counted as negative numbers and thus, deducted from the total contralateral rotations.
# For each AIMs subcategory, the scores were summed for the entire testing period.
# After an additional one week, baseline AIMs were measured and rats were treated with L-dopa at 12 mg/kg and Sydnocarb at 10 and 30 mg/kg (ip) for 12 days. On days 1, 8, 10, and 12, AIMs were scored every 20 minutes for 2 hours and graphed as a sum of axial, limb, and orolingual (ALO) abnormal movements (FIG. 6).
# Sydnocarb was administered at 3 mg/kg (ip) to 6-OHDA-lesioned rats once per day for 12 days.
# Sprague-Dawley rats (3/group) were injected unilaterally with 6-OHDA as described herein. Two weeks later, rats were tested for amphetamine-induced rotation activity to verify the dopaminergic lesion. After an additional six weeks, baseline AIMs were measured and rats were treated with Sydnocarb at 3 mg/kg (ip) for 12 days. No L-dopa was administered in this experiment. On days 5 and 12, AIMs were scored at 30, 90, and 150 minutes post-dose and graphed as a sum of axial, limb, and orolingual (ALO) abnormal movements (FIG. 11).
# [7] = humans and animals; cited from earlier work
# extracellular DA = conditions: rat striatum and nucleus accumbens; cited from earlier work
# [8] = L-dopa 12 mg/kg and Sydnocarb 10 mg/kg ip (day 2)
compound,measurement,setting,value
"CC(Cc1ccccc1)[n+]1cc([N-]C(=O)Nc2ccccc2)on1 (stereo not drawn) [Sydnocarb, 3-(β-phenylisopropyl)-N-phenylcarbamoylsydnonimine]",noradrenaline reuptake,noradrenaline reuptake,attenuates noradrenaline reuptake
same,rebound hypersomnolence,[1],lacks the rebound hypersomnolence
same,effect of test drug on L-dopa-induced AIMs (dyskinesia),[2],ameliorates L-dopa-induced dyskinesia
same,reduction of L-dopa-induced AIMs,"[2]; Sydnocarb administered 30 min after L-dopa, seen 30 and 60 minutes after L-dopa administration",approximately 40%
same,abnormal involuntary movements (AIMs) score compared to vehicle-treated rats,[2],did not cause significant AIMs
same,FAS adjusting steps compared to vehicle,"6-OHDA-lesioned rats; L-dopa 6 mg/kg and Sydnocarb 3 mg/kg ip for 12 days, days 5 and 12",increase in adjusting steps compared to vehicle
same,FAS adjusting steps compared to vehicle (L-dopa alone),"6-OHDA-lesioned rats; L-dopa 6 mg/kg and Sydnocarb 10 mg/kg po for 12 days, day 12, 60 min post-dose","slight increase, and importantly no decrease, in adjusting steps"
same,forepaw adjusting steps as percent of the intact forelimb,6-OHDA-lesioned rats; [8],~100%
same,"forepaw adjusting steps, percent of the intact forelimb, compared to vehicle",6-OHDA-lesioned rats; [8],significant increase
same,adjusting step scores compared to L-dopa alone,6-OHDA-lesioned rats; Sydnocarb 10 mg/kg with L-dopa,increased scores compared to L-dopa alone
same,DAT activity,DA transporter (DAT),has DAT activity
same,toxic episodes and abuse potential,[3],neither significant toxic episodes nor abuse potential have been reported
same,percent time spent awake compared to vehicle controls,C57Bl/6 mice,dose-dependently increased time awake
same,vertical activity (rearing events),[4],prevent decrease in vertical activity
same,markers of neurotoxicity relative to D-AMPH,"[5]; DA depletion, reactive oxygen species, lipid peroxidation",smaller changes in the markers of neurotoxicity
same,hyperlocomotion and stereotypy relative to D-AMPH,[5],less hyperlocomotion and stereotypy
same,sum of ALO AIMs compared to vehicle,"[6]; L-dopa 12 mg/kg and Sydnocarb 10 and 30 mg/kg ip for 12 days, days 1, 8, 10, 12",decrease in AIMs compared to vehicle
same,sum of ALO AIMs compared to vehicle,"[6]; L-dopa 12 mg/kg and Sydnocarb 10 and 30 mg/kg po for 12 days, days 5 and 12",decrease in AIMs compared to vehicle
same,AIMs scores relative to L-dopa treatment,"[6]; Sydnocarb 3 mg/kg ip for 12 days, no L-dopa",approximately 20 times lower
same,"sum of ALO AIMs, Sydnocarb alone","[6]; Sydnocarb 3 mg/kg ip for 12 days, no L-dopa, days 5 and 12",nominal AIMs
same,metabolite formed,[7],metabolized to D-amphetamine
same,extracellular DA increase compared with D-AMPH,extracellular DA,slower and more gradual increase in extracellular DA
N[C@@H](Cc1ccc(O)c(O)c1)C(=O)O [L-dopa],abnormal involuntary movements (AIMs) score compared to vehicle-treated rats,[2],significantly higher AIMs scores
same,abnormal involuntary movements (AIMs) caused by L-dopa,"[2]; two-day treatment with L-dopa, 50 mg/kg",increase in abnormal involuntary movements
same,"FAS, % affected paw compared to baseline","6-OHDA-lesioned rats; L-dopa 6 mg/kg ip alone, 12 days",slight increase in adjusting steps compared to baseline
same,"forepaw adjusting steps, percent of the intact forelimb, compared to vehicle",6-OHDA-lesioned rats; L-dopa 12 mg/kg alone,slight increase in steps compared to vehicle
same,sum of ALO AIMs compared to baseline,"[6]; L-dopa 12 mg/kg ip with benserazide, chronic dosing",increase in AIMS compared to baseline
CCOC[C@@H]1[C@@H](c2ccc(Cl)c(Cl)c2)C[C@@H]2CC[C@H]1N2C [Tesofensine],effect of test drug on L-dopa-induced AIMs (dyskinesia),[2],had no affect on AIMs
same,vertical activity (rearing events),[4],prevent decrease in vertical activity
